How the values were obtained:
[1] = biological target: Recombinant human DDR2 (aa427-855 containing a GST tag) (Homo sapiens (Human), UniProt Q16832); assay: LanthaScreen Eu Kinase Binding Assay DDR2; conditions: Kinase Tracer 178 10 nM, at least two independent replicates; for IC50: read-out: DDR2 pIC50 (converted)
Outline: (§1)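 DDR1 (2.5 nM) or DDR2 (1.75 nM) was preincubated with compound 30 min at RT in 50 mM HEPES pH 7.3, 10 mM MgCl2, 1 mM EGTA, 0.01% Tween. Eu-anti-GST and Tracer 178 were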

[2] = biological target: Recombinant human DDR1 (aa440-876 containing a GST tag) (Homo sapiens (Human), UniProt Q08345); assay: LanthaScreen Eu Kinase Binding Assay DDR1; conditions: Kinase Tracer 178 5 nM, at least two independent replicates; for IC50: read-out: DDR1 pIC50 (converted)
Outline: as §1

Sequence of Recombinant human DDR1 (aa440-876 containing a GST tag) (Q08345 other isoform, or with tags, fused parts or gaps): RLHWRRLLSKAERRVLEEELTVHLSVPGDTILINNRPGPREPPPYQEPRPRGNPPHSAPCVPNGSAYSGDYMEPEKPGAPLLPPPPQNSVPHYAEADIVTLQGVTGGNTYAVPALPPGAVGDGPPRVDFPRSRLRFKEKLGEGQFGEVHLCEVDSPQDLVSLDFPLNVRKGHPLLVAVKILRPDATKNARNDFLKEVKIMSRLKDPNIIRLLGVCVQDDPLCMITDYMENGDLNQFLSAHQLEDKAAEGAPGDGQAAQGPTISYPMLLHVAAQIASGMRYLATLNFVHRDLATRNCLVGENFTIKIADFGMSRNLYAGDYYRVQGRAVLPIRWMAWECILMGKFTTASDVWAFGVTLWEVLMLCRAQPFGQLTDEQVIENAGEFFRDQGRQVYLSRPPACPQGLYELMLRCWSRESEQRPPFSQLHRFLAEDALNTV
Sequence of Recombinant human DDR2 (aa427-855 containing a GST tag) (Q16832 427-855): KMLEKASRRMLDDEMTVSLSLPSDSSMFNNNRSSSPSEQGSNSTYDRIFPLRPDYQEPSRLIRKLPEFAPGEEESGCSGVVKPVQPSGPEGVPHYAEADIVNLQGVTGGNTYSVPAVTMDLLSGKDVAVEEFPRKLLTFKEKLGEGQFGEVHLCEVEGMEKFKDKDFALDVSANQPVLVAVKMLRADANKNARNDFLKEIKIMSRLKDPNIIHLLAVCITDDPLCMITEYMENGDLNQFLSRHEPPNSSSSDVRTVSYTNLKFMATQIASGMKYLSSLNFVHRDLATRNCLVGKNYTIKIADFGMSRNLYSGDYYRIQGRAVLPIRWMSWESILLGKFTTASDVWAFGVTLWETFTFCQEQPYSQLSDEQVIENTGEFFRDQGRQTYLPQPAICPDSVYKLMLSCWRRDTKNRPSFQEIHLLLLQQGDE

SMILES	DDR2 pIC50 [1]	IC50 [2] [nM]	DDR1 pIC50 [2]	IC50 [1] [nM]
Cc1cccc2c1n(-c1cnc(-c3cncc4c3cnn4C)cn1)c(=O)n2CC(=O)N[C@H](C)C(F)(F)F [Example 48, 2-[4-methyl-3-[5-(1-methylpyrazolo[3,4-c]pyridin-4-yl)pyrazin-2-yl]-2-oxo-benzimidazol-1-yl]-N-[(1R)-2,2,2-trifluoro-1-methyl-ethyl]acetamide]	D (pIC50≤6)	10 to 100		
Cn1ncc2c(-c3ccc(-n4c(=O)n(CC(=O)NCC(F)(F)F)c5cccnc54)cc3)cncc21 [Example 76, 2-[3-[4-(1-methylpyrazolo[3,4-c]pyridin-4-yl)phenyl]-2-oxo-imidazo[4,5-b]pyridin-1-yl]-N-(2,2,2-trifluoroethyl)acetamide]	D (pIC50≤6)		D (pIC50≤6)	
Cn1ncc2c(-c3ccc(-n4c(=O)n(CC(=O)NCC(F)(F)F)c5ccccc54)nc3)cncc21 [Example 63, 2-[3-[5-(1-methylpyrazolo[3,4-c]pyridin-4-yl)-2-pyridyl]-2-oxo-benzimidazol-1-yl]-N-(2,2,2-trifluoroethyl) acetamide]	D (pIC50≤6)	100 to 1000		
Cc1nc(-c2cncc3c2cnn3C)ccc1-n1c(=O)n(CC(=O)N[C@@H](C)C(F)(F)F)c2cccc(C)c21 [Example 113]		10 to 100		100 to 1000
Cc1cccc2c1n(-c1ccc(-c3cncc4[nH]ncc34)cn1)c(=O)n2CC(=O)N1CCO[C@H](C(F)(F)F)C1 [Example 70, 4-methyl-1-[2-oxo-2-[(2S)-2-(trifluoromethyl)morpholin-4-yl]ethyl]-3-[5-(1H-pyrazolo[3,4-c]pyridin-4-yl)-2-pyridyl]benzimidazol-2-one]			A (pIC50>8)	100 to 1000
Cc1cccc2c1n(-c1ccc(-c3cncc4c3cnn4C)nc1)c(=O)n2CC(=O)N1CCO[C@H](C(F)(F)F)C1 [Example 54, 4-methyl-3-[6-(1-methylpyrazolo[3,4-c]pyridin-4-yl)-3-pyridyl]-1-[2-oxo-2-[(2S)-2-(trifluoromethyl)morpholin-4-yl]ethyl]benzimidazol-2-one]			A (pIC50>8)	10 to 100
Cc1ncc2c(cnn2C)c1-c1ccc(-n2c(=O)n(CC(=O)NCC(F)(F)F)c3cccc(C)c32)cn1 [Example 109]	D (pIC50≤6)		D (pIC50≤6)	
CC(CNC(=O)Cn1c(=O)n(-c2ccc(-c3cncc4c3cnn4C)cc2)c2ccccc21)C(F)(F)F (stereo not drawn) [Example 33, 2-[3-[4-(1-methylpyrazolo[3,4-c]pyridin-4-yl)phenyl]-2-oxobenzimidazol-1-yl]-N-(3,3,3-trifluoro-2-methyl-propyl)acetamide]	D (pIC50≤6)	10 to 100		
Cn1ncc2c(-c3ccc(-n4c(=O)n(CC(=O)NCCC(F)(F)F)c5ccccc54)cc3)cncc21 [Example 46, 2-[3-[4-(1-methylpyrazolo[3,4-c]pyridin-4-yl)phenyl]-2-oxo-benzimidazol-1-yl]-N-(3,3,3-trifluoropropyl)acetamide]	D (pIC50≤6)	10 to 100		
Cc1cc(-n2c(=O)n(CC(=O)NCC(F)(F)F)c3cccc(C)c32)cnc1-c1cncc2[nH]ncc12 [Example 99, 2-[4-methyl-3-[5-methyl-6-(1H-pyrazolo[3,4-c]pyridin-4-yl)-3-pyridyl]-2-oxo-benzimidazol-1-yl]-N-(2,2,2-trifluoroethyl)acetamide]	D (pIC50≤6)	100 to 1000		
Cc1cccc2c1n(-c1ccc(-c3cncc4c3cnn4C)cc1)c(=O)n2CC(=O)N[C@@H](C)C(F)(F)F [Example 7, 2-[4-methyl-3-[4-(1-methylpyrazolo[3,4-c]pyridin-4-yl)phenyl]-2-oxobenzimidazol-1-yl]-N-[(1S)-2,2,2-trifluoro-1-methylethyl]acetamide]	A (pIC50>8)		A (pIC50>8)	
Cc1nc(-c2cncc3c2cnn3C)cnc1-n1c(=O)n(CC(=O)N[C@@H](C)C(F)(F)F)c2cccc(C)c21 [Example 115]		10 to 100		10 to 100
CC(CC(F)(F)F)NC(=O)Cn1c(=O)n(-c2ccc(-c3cncc4c3cnn4C)cc2)c2ccccc21 (stereo not drawn) [Example 28, 2-[3-[4-(1-methylpyrazolo[3,4-c]pyridin-4-yl)phenyl]-2-oxo-benzimidazol-1-yl]-N-(3,3,3-trifluoro-1-methyl-propyl)acetamide]	D (pIC50≤6)		A (pIC50>8)	
Cc1cc(-c2cncc3c2cnn3C)ccc1-n1c(=O)n(CC(=O)N[C@@H](C)C(F)(F)F)c2cccc(Cl)c21 [Example 84, 2-[4-chloro-3-[2-methyl-4-(1-methylpyrazolo[3,4-c]pyridin-4-yl)phenyl]-2-oxo-benzimidazol-1-yl]-N-[(1S)-2,2,2-trifluoro-1-methyl-ethyl]acetamide]			A (pIC50>8)	10 to 100
Cn1ncc2c(-c3cc(F)c(-n4c(=O)n(CC(=O)NCC(F)(F)F)c5ccccc54)c(F)c3)cncc21 [Example 89, 2-[3-[2,6-difluoro-4-(1-methylpyrazolo[3,4-c]pyridin-4-yl)phenyl]-2-oxo-benzimidazol-1-yl]-N-(2,2,2-trifluoroethyl)acetamide]	D (pIC50≤6)	10 to 100		
Cc1cccc2c1n(-c1ccc(-c3cncc4[nH]ncc34)cc1)c(=O)n2CC(=O)NCC(F)(F)F [Example 44, 2-[4-methyl-2-oxo-3-[4-(1H-pyrazolo[3,4-c]pyridin-4-yl)phenyl]benzimidazol-1-yl]-N-(2,2,2-trifluoroethyl)acetamide]		< 10		10 to 100
CN1CCN(C(=O)Cn2c(=O)n(-c3ccc(-c4cncc5c4cnn5C)cc3)c3ccccc32)CC1 [Example 21, 1-[2-(4-methylpiperazin-1-yl)-2-oxoethyl]-3-[4-(1-methylpyrazolo[3,4-c]pyridin-4-yl)phenyl]benzimidazol-2-one]	D (pIC50≤6)		D (pIC50≤6)	
Cc1cccc2c1n(-c1ccc(-c3cncc4c3cnn4C)cc1)c(=O)n2CC(=O)N1CCC[C@H]1C(F)F [Example 43, 1-[2-[(2S)-2-(difluoromethyl)pyrrolidin-1-yl]-2-oxo-ethyl]-4-methyl-3-[4-(1-methylpyrazolo[3,4-c]pyridin-4-yl)phenyl]benzimidazol-2-one]			A (pIC50>8)	10 to 100
Cc1cccc2c1n(-c1cnc(-c3cncc4c3cnn4C)cn1)c(=O)n2CC(=O)NCC(F)(F)F [Example 47, 2-[4-methyl-3-[5-(1-methylpyrazolo[3,4-c]pyridin-4-yl)pyrazin-2-yl]-2-oxo-benzimidazol-1-yl]-N-(2,2,2-trifluoroethyl)acetamide]			A (pIC50>8)	100 to 1000
Cc1nc(-c2cncc3[nH]nc(C)c23)cnc1-n1c(=O)n(CC(=O)NCC(F)(F)F)c2cccc(C)c21 [Example 104, 2-[4-methyl-3-[3-methyl-5-(3-methyl-1H-pyrazolo[3,4-c]pyridin-4-yl)pyrazin-2-yl]-2-oxo-benzimidazol-1-yl]-N-(2,2,2-trifluoroethyl)acetamide]	D (pIC50≤6)		D (pIC50≤6)	
Cc1cccc2c1n(-c1cnc(-c3cncc4c3cnn4C)cn1)c(=O)n2CC(=O)N[C@@H](C)C(F)(F)F [Example 49, 2-[4-methyl-3-[5-(1-methylpyrazolo[3,4-c]pyridin-4-yl)pyrazin-2-yl]-2-oxo-benzimidazol-1-yl]-N-[(1S)-2,2,2-trifluoro-1-methyl-ethyl]acetamide]			A (pIC50>8)	10 to 100

Reference: US20260055102A1 (Redx Pharma Limited, priority 2022, published 2026)
